Holding throughout (assay type): cell-based
The target of experiment [1] is T1, α1G T-type calcium ion channel (Homo sapiens, UniProt O43497).
T1 construct: host or cells: HEK293 stably expressing α1G and Kir2.1, selected with G-418
As to the kind of experiment: Antagonistic activity against T-type calcium ion channel, α1G (FDSS6000 screening / whole cell patch clamp in HEK293 cells). As to conditions: HEK293 cells expressing α1G. The method, then:
The novel compounds, represented by Chemical Formula 1, of the present invention were assayed for antagonistic activity against T-type calcium ion channels as follows.
After being synthesized, the compounds were primarily screened for inhibitory activity against T-type channels using a high-throughput screening device FDSS6000, and selection was made of the synthetic compounds that blocked T-type channels at an inhibitory rate of 40% or higher. In a secondary screening process, the selected compounds were examined for the effective inhibitory concentration IC50 by measuring Ca^2+ potentials in human HEK293 cells.
Using Titertek Multidrop Plate Dispenser, HEK293 cell line cells that stably expressed alG T-type calcium ion channel and Kir2.1 (α1G cell line: KCTC 10519BP, Korean Human Gene Bank of the Korea Research Institute of Bioscience and Biotechnology) were seeded at a density of 4×10^4 cells/well into 96-well plates that were treated with poly-L-lysine (0.05 mg/ml) 12˜24 hrs before activity screening. On the day of test, the cells adherent to the 96-well plates were washed three times with a HEPES buffer (150 mM NaCl, 5 mM KCl, 1 mM MgCl2, 2 mM CaCl2, 10 mM HEPES, 10 mM glucose, pH 7.4) using a 96-well plate washer (Bio Tek), and then stained with a fluorescent dye by treatment with a HEPES containing 5 μM fluo-3/AM and 0.001% Pluronic F-127 for 1 hr at room temperature. Again, the cells were washed twice with a HEPES buffer. Ten minutes before reading on FDSS6000, the cells were washed once with a HEPES buffer containing 10 mM CaCl2, and the final volume per well was adjusted to 81 μL. Separately from the 96-well plates in which cells were contained, two 96-well plates were prepared so as to contain KCl (final concentration 75 mM), which activates T-type calcium ion channels, and blocker drugs therein. Since most cell-based HTS devices, although provided with a liquid application system necessary for drug infusion, have no liquid absorption systems, blocker drugs to be searched for and KCl were individually prepared into a 5-fold higher concentration in 27 μL of 10 mM CaCl2 HEPES. The concentration was 1/5 diluted into a final volume of 135 μL in each well before measurement. For the FDSS6000 measurements, cells were pre-incubated with drugs for 75 seconds after the 20-sec baseline recordings, and a change in intracellular calcium concentration induced by KCl was measured. The percent inhibition by a test compound was calculated as integrated values of 340/380 fluorescent ratio of untreated and drug-treated cells.
For accurate calcium-imaging, the light source of 4 xenon lamps in FDSS6000 were irradiated to make the cells exposed selectively to the excitation wavelength (340 nm and 380 nm) by computer-controlled filter wheel. Data was obtained at regular intervals of each 1.23 second. The emitter fluorescence light flew in through a long-pass filter was obtained as an average 340/380 ratio value for each well in the 96-wells by using CCD camera and digital fluorescence analyzer in FDSS6000. All image data and analyses were obtained by using FDSS6000-exclusive program provide from Hamamatsu Photonics.
Dulbecco's modified Eagle's medium (DMEM) supplemented with 10% fetal bovine serum (FBS) and 1% penicillin/streptomycin (v/v) was employed. The cells were cultured at 36.5° C. in a humidified condition of 95% air/5% CO2 in an incubator. The medium was refreshed every 3 or 4 days while the cells were sub-cultured every week, with the growth of only α1G T-type calcium ion channel-expressing cells in the presence of G-418 (0.5 mg/mL). The recording to the cells used in the T-type calcium channel activity analysis was conducted 2-7 days after the cells were culturing on a cover slip coated with poly-L-lysine (0.5 mg/mL) when conducting every sub-culture. For analysis at a single cell level, the T-type calcium channel current was measured by an electrophysiological whole cell patch clamp method using EPC-9 amplifier (HEKA, German). […]

Experiment [2] deals with KYSE410 (Human Esophageal Carcinoma). As to the kind of experiment: SRB (sulforhodamine B) assay of cancer cell growth, KYSE410. Also noted: dose or concentration left out as unconfirmed. As to conditions: 48 hrs incubation. The procedure:
(§1) For this assay, the cells at passages were separated from the surfaces of well plates using a trypsin-EDTA solution, and seeded at a density of 5×10^3 cells/well into 96-well plates. After 24 hrs of incubation in a CO2 incubator, the medium was removed. A 4-fold dilution of each of the compounds was added in an amount of 100 μL to each well, and the cells were incubated for 48 hrs. The cells were fixed by adding 100 μL of formalin to each well, washed five times with distilled water, dried at room temperature. The cells in each well were stained with 100 μL of 0.4% SRB for 30 min. at room temperature, washed five times with 1% acetic acid, and dried at room temperature. […] The optical density was read at 540 nm.
(§2) To calculate pharmaceutical efficacy of test compounds in cancer cells, GI50 was calculated according to the following Equation 1 or 2: […]
(§3) (wherein T0 is the number of cells before the addition of a test compound, and T2 is the number of cells after 48 hrs of incubation in the presence of a test compound)
(§4) The inhibition of cancer cell growth by the test compound (% inhibition) was determined by data regression using the Lotus program from the values calculated according to Equation 1, and the IC50 value was calculated from the % inhibition.

The test system of experiment [3] is LNCap (Human Prostate Carcinoma). Briefly: SRB (sulforhodamine B) assay of cancer cell growth, LNCap. Also noted: dose or concentration left out as unconfirmed. Conditions: 48 hrs incubation. The method, then:
as §1, §2, §3, §4

The test system of experiment [4] is U87-MG (Human Glioma). Briefly: SRB (sulforhodamine B) assay of cancer cell growth, U87-MG. Also on record: dose or concentration left out as unconfirmed. Conditions: 48 hrs incubation. The procedure:
as §1, §2, §3, §4

For experiment [5], the system named is HT-1080 (Human Fibroblastoma). As to the kind of experiment: SRB (sulforhodamine B) assay of cancer cell growth, HT-1080. Also on record: dose or concentration left out as unconfirmed. Conditions: 48 hrs incubation. The method, then: as §1, §2, §3, §4

Molecules are shown by their SMILES.

T1 sequence (O43497 whole entry): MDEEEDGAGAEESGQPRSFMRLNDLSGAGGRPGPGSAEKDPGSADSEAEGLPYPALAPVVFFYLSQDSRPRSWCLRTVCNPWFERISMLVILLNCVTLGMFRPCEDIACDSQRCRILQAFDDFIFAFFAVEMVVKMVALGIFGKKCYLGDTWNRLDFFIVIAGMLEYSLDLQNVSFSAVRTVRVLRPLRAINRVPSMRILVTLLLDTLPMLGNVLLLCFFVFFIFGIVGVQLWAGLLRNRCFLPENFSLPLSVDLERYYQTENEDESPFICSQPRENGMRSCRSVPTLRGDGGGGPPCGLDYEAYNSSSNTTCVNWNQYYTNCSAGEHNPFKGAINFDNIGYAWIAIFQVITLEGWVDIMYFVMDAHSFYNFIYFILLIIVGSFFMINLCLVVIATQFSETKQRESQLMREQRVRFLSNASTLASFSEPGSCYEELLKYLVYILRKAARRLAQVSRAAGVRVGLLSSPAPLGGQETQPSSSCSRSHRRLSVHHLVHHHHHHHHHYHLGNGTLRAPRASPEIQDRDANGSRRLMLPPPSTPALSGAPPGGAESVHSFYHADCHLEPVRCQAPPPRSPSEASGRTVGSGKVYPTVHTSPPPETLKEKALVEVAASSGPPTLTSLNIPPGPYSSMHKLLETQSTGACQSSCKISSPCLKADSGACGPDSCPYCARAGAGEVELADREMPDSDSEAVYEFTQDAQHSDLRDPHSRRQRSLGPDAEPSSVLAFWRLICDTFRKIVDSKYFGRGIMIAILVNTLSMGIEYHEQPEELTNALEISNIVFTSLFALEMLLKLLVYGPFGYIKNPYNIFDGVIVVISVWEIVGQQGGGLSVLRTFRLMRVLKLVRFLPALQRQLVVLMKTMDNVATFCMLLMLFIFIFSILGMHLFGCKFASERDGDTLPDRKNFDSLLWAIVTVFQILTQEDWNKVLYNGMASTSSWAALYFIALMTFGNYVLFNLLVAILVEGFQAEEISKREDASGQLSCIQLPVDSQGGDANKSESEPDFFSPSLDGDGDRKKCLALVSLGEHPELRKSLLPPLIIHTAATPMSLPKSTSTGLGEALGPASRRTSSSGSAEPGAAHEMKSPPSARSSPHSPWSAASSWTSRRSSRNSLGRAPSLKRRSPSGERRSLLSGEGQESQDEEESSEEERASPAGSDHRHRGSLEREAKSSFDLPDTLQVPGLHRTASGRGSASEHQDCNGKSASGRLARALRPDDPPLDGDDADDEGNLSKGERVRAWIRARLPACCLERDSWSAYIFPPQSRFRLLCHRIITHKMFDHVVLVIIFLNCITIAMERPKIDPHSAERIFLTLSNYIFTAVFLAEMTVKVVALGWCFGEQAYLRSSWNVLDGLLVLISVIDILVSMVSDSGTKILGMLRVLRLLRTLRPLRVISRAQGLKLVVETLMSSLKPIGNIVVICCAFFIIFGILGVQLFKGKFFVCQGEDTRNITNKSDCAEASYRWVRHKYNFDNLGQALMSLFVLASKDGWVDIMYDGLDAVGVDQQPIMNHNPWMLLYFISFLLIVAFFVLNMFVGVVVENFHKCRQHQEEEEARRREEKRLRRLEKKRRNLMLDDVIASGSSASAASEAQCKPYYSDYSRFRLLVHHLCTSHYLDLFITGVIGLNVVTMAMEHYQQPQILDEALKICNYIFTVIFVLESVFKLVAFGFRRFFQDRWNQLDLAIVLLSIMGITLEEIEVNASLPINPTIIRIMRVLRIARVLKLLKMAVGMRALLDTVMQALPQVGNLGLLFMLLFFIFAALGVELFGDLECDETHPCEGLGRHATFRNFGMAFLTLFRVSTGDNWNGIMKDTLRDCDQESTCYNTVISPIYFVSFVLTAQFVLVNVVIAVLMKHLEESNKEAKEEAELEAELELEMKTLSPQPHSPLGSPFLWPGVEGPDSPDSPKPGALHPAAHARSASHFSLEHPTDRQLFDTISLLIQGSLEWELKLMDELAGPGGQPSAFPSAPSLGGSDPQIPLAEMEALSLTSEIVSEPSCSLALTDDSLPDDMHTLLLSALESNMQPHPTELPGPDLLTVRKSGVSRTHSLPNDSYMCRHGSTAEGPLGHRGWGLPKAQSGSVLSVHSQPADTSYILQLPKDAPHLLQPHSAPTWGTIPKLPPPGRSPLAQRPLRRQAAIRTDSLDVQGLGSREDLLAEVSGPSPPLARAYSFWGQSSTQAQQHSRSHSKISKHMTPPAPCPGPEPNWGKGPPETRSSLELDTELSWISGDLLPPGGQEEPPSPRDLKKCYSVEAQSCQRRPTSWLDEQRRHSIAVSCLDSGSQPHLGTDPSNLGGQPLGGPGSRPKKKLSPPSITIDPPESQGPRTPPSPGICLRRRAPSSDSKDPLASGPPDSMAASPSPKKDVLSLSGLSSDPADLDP

Turning to `CC(C)Cc1cc(CNS(=O)(=O)c2ccccc2)nn1-c1ccccc1` [Compound 1, N-[(5-Isobutyl-1-phenyl-1H-pyrazol-3-yl)methyl]benzenesulfonamide], the inhibition at 10 µM in experiment [1] came out at 61.4%. On to `CC(C)Cc1cc(CNS(=O)(=O)c2cccc(F)c2)nn1-c1ccccc1` [Compound 2, N-[(5-Isobutyl-1-phenyl-1H-pyrazol-3-yl)methyl]-3-fluorobenzenesulfonamide], for which the inhibition at 10 µM in experiment [1] was 64.1%. Still for that read-out and setting: in the case of `CC(C)Cc1cc(CNS(=O)(=O)c2cccc(Cl)c2)nn1-c1ccccc1` [Compound 3, N-[(5-Isobutyl-1-phenyl-1H-pyrazol-3-yl)methyl]-3-chlorobenzenesulfonamide] it was 57.6%; in that of `Cc1ccc(S(=O)(=O)NCc2cc(CC(C)C)n(-c3ccccc3)n2)cc1` [Compound 4, N-[(5-Isobutyl-1-phenyl-1H-pyrazol-3-yl)methyl]-4-methylbenzenesulfonamide], 57.3%. Same read-out and setting: the same measure for `CC(C)Cc1cc(CNS(=O)(=O)Cc2ccccc2)nn1-c1ccccc1` [Compound 7, N-[(5-Isobutyl-1-phenyl-1H-pyrazol-3-yl)methyl]benzylsulfonamide]: 65.7%.

For `CC(C)Cc1cc(CNS(=O)(=O)c2cccc3cccnc23)nn1-c1ccccc1` [Compound 10, N-[(5-Isobutyl-1-phenyl-1H-pyrazol-3-yl)methyl]quinoline-8-sulfonamide], the inhibition at 10 µM in experiment [1] was determined as 29.8%. With `Cc1ccc(F)c(S(=O)(=O)NCc2cc(CC(C)C)n(-c3ccccc3)n2)c1` [Compound 11, N-[(5-Isobutyl-1-phenyl-1H-pyrazol-3-yl)methyl]-(2-fluoro-5-methyl)benzenesulfonamide], in experiment [2], the “Inhibition % for Cancer Cell KYSE410” value stood at 47.30%. Moreover, the “Inhibition % for Cancer Cell LNCap” value in experiment [3] is listed as 71.41%. For the same compound, the “Inhibition % α1G (10 μM)” value in experiment [1] is on record as 54.86%. In experiment [4], the “Inhibition % for Cancer Cell U87-MG” value amounted to 34.40%. In experiment [5], the “Inhibition % for Cancer Cell HT1080” value worked out at 57.56%. `CC(C)Cc1cc(CNS(=O)(=O)c2c(F)cccc2F)nn1-c1ccccc1` [Compound 13, N-[(5-Isobutyl-1-phenyl-1H-pyrazol-3-yl)methyl]-2,6-difluorobenzenesulfonamide]: in experiment [1], the inhibition at 10 µM turned out to be 45.1%. On the same count and under the same terms, in the case of `Cc1c(CNS(=O)(=O)c2ccccc2)nn(-c2ccccc2)c1CC(C)C` [Compound 15, N-[(5-Isobutyl-4-methyl-1-phenyl-1H-pyrazol-3-yl)methyl]benzenesulfonamide] it was 70.5%. As for `Cc1c(CNS(=O)(=O)c2ccc3ccccc3c2)nn(-c2ccccc2)c1CC(C)C` [Compound 16, N-[(5-Isobutyl-4-methyl-1-phenyl-1H-pyrazol-3-yl)methyl]naphthalene-2-sulfonamide], the inhibition at 10 µM in experiment [1] is 74.2%. The same measure, in the same setting: the same measure for `CC(C)Cc1cc(CNS(=O)(=O)c2ccccc2)nn1-c1ccc(F)cc1` [Compound 20, N-[(5-Isobutyl-1-(4-fluorophenyl)-1H-pyrazol-3-yl)methyl]benzenesulfonamide]: 45.6%. Still for that read-out and setting: the same measure for `CC(C)Cc1cc(CN2Cc3ccccc3S2(=O)=O)nn1-c1ccccc1` [Compound 28, 2-((5-Isobutyl-1-phenyl-1H-pyrazol-3-yl)methyl)-2,3-dihydrobenzo[d]isothiazole-1,1-dioxide]: 67.9%. Consider `CC(C)Cc1cc(CN2Cc3ccccc3S2(=O)=O)nn1C(C)(C)C` [Compound 29, 2-[{1-(tert-Butyl)-5-isobutyl-1H-pyrazol-3-yl}methyl]-2,3-dihydro[d]isothiazole 1,1-dioxide], for which, in experiment [1], the “Inhibition % α1G (10 μM)” value was 60.62%. Consider `CC(C)Cc1cc(CN2Cc3ccccc3S2(=O)=O)nn1-c1ccc(F)cc1` [Compound 30, 2-[{1-(4-Fluorophenyl)-5-isobutyl-1H-pyrazol-3-yl}methyl]-2,3-dihydro[d]isothiazole 1,1-dioxide], for which, in experiment [1], the “Inhibition % α1G (10 μM)” value is given as 70.81%. Same read-out and setting: the same measure for `CC(C)(C)n1nc(CN2Cc3ccccc3S2(=O)=O)cc1-c1ccc(C2CCCCC2)cc1` [Compound 36, 2-[{1-(tert-Butyl)-5-(4-cyclohexylphenyl)-1H-pyrazol-3-yl}methyl]-2,3-dihydro[d]isothiazole 1,1-dioxide]: 45.62%.

The values above are taken from patent publication US9493423B2, “Compounds capable of inhibiting voltage gated calcium ion channel, and pharmaceutical compositions comprising the same” (KOREA INSTITUTE OF SCIENCE AND TECHNOLOGY, priority 2015, dated 2016).
